According to ChEMBL document CHEMBL4613244, “Absolute Configuration and Corrected NMR Assignment of 17-Hydroxycyclooctatin, a Fused 5-8-5 Tricyclic Diterpene” (J Nat Prod, 2020):
The source made the active and inactive calls. The calls are words filed in the database; no cut-off is given here.

Columns and labels:
Assay type in all cases: functional, cell-based
MCF7 [1] = assay: Anti-estrogenic activity in human MCF7 cells assessed as reduction in 17beta-estradiol-induced cell viability at 100 nM after 24 hrs by MTT assay
MCF7 [2] = assay: Antiproliferative activity against human MCF7 cells assessed as reduction in cell viability after 24 hrs by MTT assay; conditions: MCF7, 24 h
MCF7 [3] = assay: Anti-estrogenic activity in human MCF7 cells assessed as reduction in 17beta-estradiol-induced cell viability at 100 to 200 uM after 24 hrs by MTT assay

SMILES	Activity (MCF7 [1])	IC50 (MCF7 [2]) [µM]	Activity (MCF7 [3])
C[C@]12CC[C@@H]3c4ccc(O)cc4C[C@@H](CCCCCCCCC[S+]([O-])CCCC(F)(F)C(F)(F)F)[C@H]3[C@@H]1CC[C@@H]2O (stereo partly drawn)	Active	–	–
C[C@H](CO)[C@H]1CC[C@]2(C)C[C@@H]3[C@H](CO)C[C@@H](O)[C@H]3[C@@](C)(O)C/C=C/12	–	567	Active
